Several values for one entry are separate records, joined by “and”; a condition that tells them apart may be missing. Equal entries are not always repeated. Structures can show the parent of a compound that is named as a salt. Where two headings read alike, the source gives them in different places.
Columns and labels:
[1] = system: R. sanguineus tick larvae; conditions: for Repellence Median (Q1-Q3) [%] / Knockdown Median (Q1-Q3) [%]: pure compound; for Repellence Median (Q1-Q3) [%]: median of replicates; for Knockdown Median (Q1-Q3) [%]: motility reduction over 9 min; for Knockdown Minimum effective concentration / Repellence Minimum effective concentration: smallest concentration with median activity above 50% significance limit
Protocol: FIG. 1 Schematic representation of the tick repellent test. 30-60 tick larvae are deposited in the non-treated area of a circular arena (8.96 cm^2) whereby one quadrant of the surface (2.25 cm^2) is treated. After 1 minute, the distribution of ticks in the treated and untreated areas is measured for a duration of 2 minutes. The repellent/deterrent effect is expressed in %: 100% means that ticks completely avoided the treated surface. Toxicity is measured in the same setup over a duration of 8 minutes and the mortality is expressed in % motility reduction between the beginning and the end of the 8 minutes. Dosages are expressed as a quantity (mg or molarity) per surface unit (m^2), as the compound or extract is deposited at the bottom of the well. Pure compounds: dose given in micromoles/m^2; Extracts: dose given in micrograms/m^2. Tests were run in triplicates.
The assay is used to evaluate the repellent/deterrent potential of a test compound or extract. The test includes a preliminary assessment of knockdown efficacy as a secondary endpoint. Knockdown can be defined as a state of intoxication and paralysis that usually precedes death (Wickham et al. (1974) Pesticide Science 5(5): 657-664). The test relies on the questing behavior of ticks that explore their habitat to find a suitable host hunting site and their propensity to avoid areas treated with repellent or irritating substances. Tick knockdown is expressed as a reduction in total motility over a defined period of time, and not by collecting and counting the number of dead and live ticks at the end of the exposure period.
Plant extracts or synthetic pure alkaloids diluted in methanol (extracts) or ethanol (alkaloids) were deposited on the bottom of wells in a six-well plate. Only one quadrant ([…]) of the bottom surface of each well was treated. The solvent was left to evaporate. The final concentration of the plant extracts was, therefore, expressed in mg/m^2, or in micromoles per square meter (μmol/m^2) for the synthetic alkaloids. Final concentrations applied for plant extracts were 893 (R. sanguineus adults only), 446, 141, 44.6, 14.1, and 4.46 mg/m^2, and 300, 100, 30, 10, and 3 μmol/m^2 for pure alkaloids. Approximately 50 R. sanguineus tick larvae, and exactly 5 R. sanguineus adults, or 5 I. ricinus nymphs were added to the untreated area of each well. Positive (DEET, commercial tick repellent) and negative (methanol or ethanol) controls were evaluated in parallel. Each concentration tested was run in three or more test replicates. After a 1-min incubation on a heating plate, the frequency of tick movement in the treated quadrant and in each of the untreated quadrants was recorded by machine vision. Tick movement on the untreated surface was computed as the median of movement on the three untreated quadrants. To estimate deterrence recordings were performed over a period of 2 min for R. sanguineus larvae, and for 3 minutes for R. sanguineus adults and I. ricinus nymphs, after the 1-min pre-exposure period. To assess knockdown effect, recording was extended to 9 min (starting at the 1-min pre-exposure period and lasting an additional 8 minutes).
Deterrence activity was calculated as follows: Percent deterrence=1−(movements on treated area/movements on untreated area)×100.
A difference of 50% between total movements recorded in the treated area versus movements recorded in the untreated area was considered significant.
The tick knockdown effect was calculated similarly: Percent knockdown=1−(movements at the end of the imaging period/movements at the beginning of the imaging period)×100.
A difference of 50% between total movements recorded during the 1 min pre-exposure and total movements measured at 9 min of recording was considered significant.

[2] = system: adult Aedes aegypti mosquitoes; assay: Mosquito repellency assay (landings and time on warm treated surface); format: in vivo; conditions: for Mean probing time [%, compared to control]: 100% = same time as on vehicle-treated surface; for Repellency, % reduction in landings vs vehicle control: repellency as percentage reduction of control, 100% = no landings
Protocol: The compound of the invention is mixed with ethanol to make a composition that can be applied to a surface and allowed to dry. After the surface is treated with the compounds of the invention and dried, it is heated to human body temperature, and the number of landings and the total time spent by the mosquitoes on the warm surface by adult Aedes aegypti mosquitoes is recorded automatically by machine vision to measure repellency of each compound.
Repellency (based on the number of individual landings on the warm surface) is expressed as a percentage reduction of the control, where the average number of mosquitoes landing on a warm surface treated only with the vehicle solvent is counted. 100% means no mosquitoes landed on the warm surface.
For mosquitoes that still landed on the warm surface, the time spent on the warm surface is also recorded and expressed as a percentage of the control, corresponding to the average time that mosquitoes spent on the same warm surface when treated only with the vehicle solvent. 100% mean that the mosquitoes spent the same time on the treated warm surface as on a warm surface treated only with the vehicle solvent.
Each compound/dose is tested in triplicate using a surface of 18.9 cm2 and 100 microliters of solution without the compound (the placebo) or with the compound dilution spread on the surface, and allowed to dry before the test. The average and standard error on triplicates is calculated. The control (using only vehicle solvent) is run with ethanol. The same population of mosquitoes is exposed first to the warm surface treated with the vehicle solvent, then to the surface treated with the compound. The concentration of the solution comprising the test compound was adjusted to ensure the treatment dosage of the compound is according to the final concentration per surface units area in the table.

[3] = Table 5, N = 3 subset of Table 4
[4] = Table 5, N = 3 subset of Table 4, dose 300
[5] = Table 5, N = 3 subset of Table 4, dose 30
[6] = dose 380 μmol/m^2, listed as S enantiomer HCl salt, dihydrochloride

| Compound | MEC (μmol/m^2) [1, 3] [μmol/m^2] | % repellency [1, 4] [%] | Repellence Median (Q1-Q3) [%] ([1]; concentration 3 μmol/m^2) | Knockdown Median (Q1-Q3) [%] ([1]; concentration 3 μmol/m^2) | Repellence Median (Q1-Q3) [%] ([1]; concentration 10 μmol/m^2) | Knockdown Median (Q1-Q3) [%] ([1]; concentration 10 μmol/m^2) | Repellence Median (Q1-Q3) [%] ([1]; concentration 30 μmol/m^2) | Knockdown Median (Q1-Q3) [%] ([1]; concentration 30 μmol/m^2) | Repellence Median (Q1-Q3) [%] ([1]; concentration 100 μmol/m^2) | Knockdown Median (Q1-Q3) [%] ([1]; concentration 100 μmol/m^2) | Repellence Median (Q1-Q3) [%] ([1]; concentration 300 μmol/m^2) | Knockdown Median (Q1-Q3) [%] ([1]; concentration 300 μmol/m^2) | Knockdown Minimum effective concentration [1] [μmol/m^2] | % repellency [1, 5] [%] | also measured |
| --- | --- | --- | --- | --- | --- | --- | --- | --- | --- | --- | --- | --- | --- | --- | --- |
| c1cncc([C@@H]2CCCCN2)c1 [(S)-anabasine] | >300 | 9 | 6.6 | 0 | 42.4% | 6.9 | 46.9% | 10.4 | 58 | 6.0% | 40.5% | 9.5% | >300 |  | % mortality [1, 4]: 14% |
| C1=CC[C@@H](c2cccnc2)NC1 (single isomer, unassigned) [S enantiomer base, S-(−) anatabine] |  |  |  |  |  |  |  |  |  |  |  |  |  |  | Mean probing time [%, compared to control] ([2]; dose 75 μmol/m^2): 20.6%; Repellency, % reduction in landings vs vehicle control ([2]; dose 75 μmol/m^2): 86.5%; Mean probing time [%, compared to control] ([2]; dose 380 μmol/m^2): 1.6%; Repellency, % reduction in landings vs vehicle control ([2]; dose 380 μmol/m^2): 90.0% |
| C1=CC[C@H](c2cccnc2)NC1 (single isomer, unassigned) [R enantiomer base, R-(+) anatabine] |  |  |  |  |  |  |  |  |  |  |  |  |  |  | Mean probing time [%, compared to control] ([2]; dose 75 μmol/m^2): 29.0%; Repellency, % reduction in landings vs vehicle control ([2]; dose 75 μmol/m^2): 68.9%; Mean probing time [%, compared to control] ([2]; dose 380 μmol/m^2): 2.7%; Repellency, % reduction in landings vs vehicle control ([2]; dose 380 μmol/m^2): 77.9% |
| C1=CCC(c2cccnc2)NC1 (stereo not drawn) [anatabine] |  |  |  |  |  |  |  |  |  |  |  |  |  |  | mosquito repellency, base form compared with HCl salt form ([2]; in vivo): significantly better mosquito repellent than in the HCl salt form; time spent by mosquitoes on treated surface, base form compared with HCl salt form ([2]; in vivo): much shorter time |
| c1cncc([C@@H]2CCCN2)c1 [(S)-nornicotine] | 300 | 70 | 12.3 | 0.7 | 35.3% | 0.4 | 27.9% | 9.9 | 42.2 | 9% | 81% and 81.1% | 18.7% | >300 | 5 | % mortality [1, 5]: 11%; % mortality [1, 4]: 49%; Repellence Minimum effective concentration [1]: 300 μmol/m^2 |
| C1=CC[C@@H](c2cccnc2)NC1 [(S)-anatabine dihydrochloride] | 300 | 78 | 38.4 | 0 |  | 4.2 |  | 14.7 |  | 23.8% | 79.8% | 14.2% | >300 | 12 | Mean probing time [%, compared to control] [2, 6]: 71.5%; Repellency, % reduction in landings vs vehicle control [2, 6]: 25.4%; Mean probing time [%, compared to control] ([2]; dose 760 μmol/m^2): 62.7%; Repellency, % reduction in landings vs vehicle control ([2]; dose 760 μmol/m^2): 28.2%; Repellence Median (Q1-Q3) [%] ([1]; concentration 10 μmol/m^2, dihydrochloride): 38.1%; Repellence Median (Q1-Q3) [%] ([1]; concentration 10 μmol/m^2, listed as (S)-anatabine, dihydrochloride): 38%; Repellence Median (Q1-Q3) [%] ([1]; concentration 30 μmol/m^2, dihydrochloride): 54.4%; Repellence Median (Q1-Q3) [%] ([1]; concentration 30 μmol/m^2, listed as (S)-anatabine, dihydrochloride): 54%; Repellence Median (Q1-Q3) [%] ([1]; concentration 100 μmol/m^2, dihydrochloride): 86.2%; Repellence Median (Q1-Q3) [%] ([1]; concentration 100 μmol/m^2, listed as (S)-anatabine, dihydrochloride): 86%; Repellence Minimum effective concentration ([1]; dihydrochloride): 30 μmol/m^2 |
| CN1CCC[C@H]1c1cccnc1 [(S)-nicotine] |  |  |  | 3.4 |  | 1.3 |  | 26.4 |  | 37% and 37.1% |  | 95% and 94.5% | 300 |  |  |
| CCN(CC)C(=O)c1cccc(C)c1 [DEET, N,N-Diethyl-m-toluamide] |  | 100 | 31.1 | 0.7 | 57% and 57.3% | 10.0 | 64% and 63.9% | 2.4 | 75.7 | 5.2% | 100% | 11.1% | >300 | 26 | % repellency ([1]; Table 5, N = 3 subset of Table 4, dose 3): 27%; % mortality ([1]; in vivo): 11%; % repellency ([1]; positive control, dose 8.5 (mg/m^2)): 81.6%; Repellence Minimum effective concentration [1]: 10 μmol/m^2; MEC (Repellency) (mg/m^2) ([1]; tobacco extracts and DEET positive control): 8.5 mg/m^2 |

From patent publication US12538922B2, “Composition and methods for parasite control” (priority 2019, dated 2026)
